# Target: T1, airway epithelial sodium currents (epithelial Na+ channel, ENaC) in canine bronchial epithelia (Canis lupus familiaris, UniProt A0A8I3MKE6+A0A8I3Q679+Q95165)
# T1 construct: endogenous in cells; host or cells: primary canine bronchial epithelial cells cultured at air-liquid interface, mounted in Ussing chambers
# T1 sequence (A0A8I3Q679 1-649): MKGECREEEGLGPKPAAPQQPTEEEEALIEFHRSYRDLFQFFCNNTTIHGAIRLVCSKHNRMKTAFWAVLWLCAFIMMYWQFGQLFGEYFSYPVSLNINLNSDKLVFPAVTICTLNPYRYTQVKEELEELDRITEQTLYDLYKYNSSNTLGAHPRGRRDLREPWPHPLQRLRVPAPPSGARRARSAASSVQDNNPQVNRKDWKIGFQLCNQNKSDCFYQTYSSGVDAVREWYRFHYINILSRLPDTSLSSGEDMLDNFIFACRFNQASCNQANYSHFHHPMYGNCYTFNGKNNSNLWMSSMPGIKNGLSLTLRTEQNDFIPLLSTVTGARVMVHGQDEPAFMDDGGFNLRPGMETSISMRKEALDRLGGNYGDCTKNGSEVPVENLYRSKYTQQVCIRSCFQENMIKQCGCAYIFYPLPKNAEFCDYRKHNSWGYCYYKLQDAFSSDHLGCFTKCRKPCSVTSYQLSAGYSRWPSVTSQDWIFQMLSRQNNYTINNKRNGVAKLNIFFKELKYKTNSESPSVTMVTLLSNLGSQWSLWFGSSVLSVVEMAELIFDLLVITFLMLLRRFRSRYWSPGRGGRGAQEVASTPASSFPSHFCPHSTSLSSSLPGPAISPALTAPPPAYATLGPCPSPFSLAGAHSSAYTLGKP
# T1 sequence (Q95165 1-641): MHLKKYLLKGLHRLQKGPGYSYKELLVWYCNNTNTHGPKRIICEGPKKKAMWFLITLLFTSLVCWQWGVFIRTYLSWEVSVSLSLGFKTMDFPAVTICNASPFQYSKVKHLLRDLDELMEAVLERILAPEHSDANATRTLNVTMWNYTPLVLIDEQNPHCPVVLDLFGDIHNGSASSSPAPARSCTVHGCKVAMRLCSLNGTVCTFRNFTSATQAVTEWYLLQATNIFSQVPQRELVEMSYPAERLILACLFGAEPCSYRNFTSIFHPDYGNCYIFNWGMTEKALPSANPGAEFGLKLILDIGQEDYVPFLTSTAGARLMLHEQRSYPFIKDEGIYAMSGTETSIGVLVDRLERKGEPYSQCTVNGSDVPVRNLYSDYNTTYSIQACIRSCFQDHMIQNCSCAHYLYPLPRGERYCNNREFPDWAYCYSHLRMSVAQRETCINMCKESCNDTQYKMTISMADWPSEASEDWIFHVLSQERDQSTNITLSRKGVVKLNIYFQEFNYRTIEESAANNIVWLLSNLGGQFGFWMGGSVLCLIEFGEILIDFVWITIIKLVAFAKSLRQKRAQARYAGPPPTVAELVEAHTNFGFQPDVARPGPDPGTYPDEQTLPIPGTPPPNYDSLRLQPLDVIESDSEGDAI
# T1 sequence (A0A8I3MKE6 1-646): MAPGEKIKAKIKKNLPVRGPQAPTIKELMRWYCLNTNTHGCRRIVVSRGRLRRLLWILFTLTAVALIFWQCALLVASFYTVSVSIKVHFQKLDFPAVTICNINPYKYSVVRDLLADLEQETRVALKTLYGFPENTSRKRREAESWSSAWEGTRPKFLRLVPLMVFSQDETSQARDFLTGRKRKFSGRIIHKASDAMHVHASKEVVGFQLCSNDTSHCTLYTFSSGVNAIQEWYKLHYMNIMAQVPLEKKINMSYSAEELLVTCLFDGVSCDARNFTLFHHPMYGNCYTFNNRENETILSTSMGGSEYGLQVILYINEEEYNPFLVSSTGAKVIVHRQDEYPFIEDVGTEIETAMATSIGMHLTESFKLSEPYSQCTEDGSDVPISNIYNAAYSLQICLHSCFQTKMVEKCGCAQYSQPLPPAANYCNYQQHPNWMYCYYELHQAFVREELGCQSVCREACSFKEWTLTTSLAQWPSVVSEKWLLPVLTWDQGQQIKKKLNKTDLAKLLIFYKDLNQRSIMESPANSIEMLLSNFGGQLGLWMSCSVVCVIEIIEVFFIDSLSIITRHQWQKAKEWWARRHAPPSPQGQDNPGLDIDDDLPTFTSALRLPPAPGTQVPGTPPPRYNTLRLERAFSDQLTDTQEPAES
# Assay: Sodium channel blocking activity: potency in canine bronchial epithelia, short circuit current (ISC) in Ussing chambers
# Type: cell-based
# Conditions: relative to amiloride as positive control
# Method: One assay used to assess mechanism of action and/or potency of the compounds of the present invention involves the determination of lumenal drug inhibition of airway epithelial sodium currents measured under short circuit current (ISC) using airway epithelial monolayers mounted in Ussing chambers. Cells obtained from freshly excised human, dog, sheep or rodent airways are seeded onto porous 0.4 micron Snapwell™ Inserts (CoStar), cultured at air-liquid interface (ALI) conditions in hormonally defined media, and assayed for sodium transport activity (ISC) while bathed in Krebs Bicarbonate Ringer (KBR) in Using chambers. All test drug additions are to the lumenal bath with half-log dose addition protocols (from 1×10^−11 M to 3×10^−5M), and the cumulative change in ISC (inhibition) recorded. All drugs are prepared in dimethyl sulfoxide as stock solutions at a concentration of […] and stored at −20° C. Eight preparations are typically run in parallel; two preparations per run incorporate amiloride and/or benzamil as positive controls. After the maximal concentration ([…]) is administered, the lumenal bath is exchanged three times with fresh drug-free KBR solution, and the resultant ISCmeasured after each wash for approximately 5 minutes in duration. Reversibility is defined as the percent return to the baseline value for sodium current after the third wash. All data from the voltage clamps are collected via a computer interface and analyzed off-line.
# Dose-effect relationships for all compounds are considered and analyzed by the Prism 3.0 program. IC50 values, maximal effective concentrations, and reversibility are calculated and compared to amiloride and benzamil as positive controls.
# Amiloride was also tested in this assay as a positive control. The results for the compounds of the present invention are reported as fold-enhancement values relative to amiloride.
row,SMILES,Fold Enhancement Over Amiloride [fold]
1,"Cl.N=C(NCCCCCc1ccc(O)cc1)NC(=O)c1nc(Cl)c(N)nc1N [drawing 27 n 5 Position of R 4 R OH, 5-(4-Hydroxyphenyl)pentylamidino-3,5-diamino-6-chloropyrazinecarboxamide hydrochloride]",14
2,"Cl.N=C(NCCCc1ccc(O)cc1)NC(=O)c1nc(Cl)c(N)nc1N [drawing 27 n 3 Position of R 4 R OH, 3-(4-Hydroxyphenyl)propylamidino-3,5-diamino-6-chloropyrazinecarboxamide hydrochloride]",5.2
3,"Cl.N=C(NCCCCc1ccc(O)c(O)c1)NC(=O)c1nc(Cl)c(N)nc1N [drawing 26 Position 3,4 R H, 4-(3,4-Dihydroxyphenyl)butylamidino-3,5-diamino-6-chloropyrazinecarboxamide hydrochloride]",15.1
4,"Br.N=C(NCCCOc1ccc(O)cc1)NC(=O)c1nc(Cl)c(N)nc1N [drawing 29 a CH2 b O R H, 4-(4-Hydroxyphenyl)-4-oxabutylamidino-3,5-diamino-6-chloropyrazinecarboxamide hydrobromide]",16.1
5,"Cl.N=C(NCCCCc1ccc(O)cc1)NC(=O)c1nc(Cl)c(N)nc1N [drawing 27 n 4 Position of R 4 R OH, 4-(4-hydroxyphenyl)butylamidino-3,5-diamino-6-chloropyrazinecarboxamide hydrochloride]",50.3
6,"Cl.N=C(NCCCCc1ccc(O)cc1O)NC(=O)c1nc(Cl)c(N)nc1N [drawing 26 Position 2,4 R H, 4-(2,4-Dihydroxyphenyl)butylamidino-3,5-diamino-6-chloropyrazinecarboxamide hydrochloride]",14.9
